Measured values reported in patent US11919965B2, “Methods of treating multiple myeloma with bispecific anti-BCMA x anti-CD3 antibodies” (Regeneron Pharmaceuticals, Inc., priority 2019, dated 2024).

What was measured:
[1] = test system: Jurkat/NFATLuc.3C7 reporter cells with OPM-2 cells (BCMA positive); assay: Jurkat/NFATLuc reporter bioassay (T-cell activation); assay type: cell-based, human
Procedure: Activity of the anti-BCMA×anti-CD3 bispecific antibodies were assessed in a Jurkat/NFATLuc reporter bioassay utilizing several cell lines with varying levels of BCMA surface expression. The Jurkat cells were engineered to express an NFAT-luciferase reporter (Jurkat/NFATLuc.3C7), and 50,000 Jurkat reporter cells were combined with 50,000 BCMA positive (Daudi, MM1-S, NCI-H929, OPM-2, RPMI-8226, MOLP-8, or Raji) or BCMA negative (HEK293) cells in Thermo Nunclon delta 96 well white microwell plates (Thermo Scientific, Cat #136102) in 50 ul of assay media (RPMI media with 10% FBS and 1% P/S/G). Three-fold serial dilutions of the BCMA×CD3 bispecific antibodies (mAb25441D or mAb25442D), or a bivalent anti-BCMA antibody (mAb21581) were immediately added in 50 uL of assay buffer. The plates were gently agitated and incubated in a 37° C., 5% CO2 incubator for 4-6 hours. NFAT-Luciferase activity was determined using Promega One-Glo (Cat #E6130) and a Perkin Elmer Envision plate reader. RLU were plotted in GraphPad Prism using a four-parameter logistic equation over a 12-point response curve to calculate EC50 values. The no antibody treatment condition for each dose-response curve is also included in the analysis as a continuation of the three-fold serial dilution and is represented as the lowest dose. The signal to noise (S:N) is determined by taking the ratio of the highest RLU on the curve to the lowest.

[2] = test system: BCMA-expressing NCI-H929 multiple myeloma tumors; assay: Xenogenic tumor model, NCI-H929 + human PBMC s.c. in NSG mice, treatment from implantation (Example 10); assay type: in vivo, mouse; conditions: 4 mg/kg
Procedure: To determine the in vivo efficacy of BCMA×CD3 bispecific antibodies (Abs), a xenogenic tumor study was performed. Immunodeficient NOD.Cg-Prkdc^scidII2rgtm1Wjl/SzJ (NSG) mice were subcutaneously implanted with a mixture of 10×10^6 BCMA-expressing NCI-H929 multiple myeloma cells and 0.5×10^6 human peripheral blood mononuclear cells (PBMC) isolated from a normal donor. […] The mice were administered Abs twice per week for a total of three weeks, and tumor growth was assessed over 40 days. While BCMA^+ tumors grew similarly in the vehicle-, isotype control-, and CD3-binding control-treated mice, both BCMA×CD3 Abs that were tested prevented the growth of tumors in vivo.
Implantation and measurement of syngeneic tumors: NSG mice were subcutaneously implanted with a mixture of 10×10^6 BCMA-expressing NCI-H929 multiple myeloma cells and 0.5×10^6 PBMC derived from a normal donor. […] The mice were administered Abs twice per week for a total of three weeks. Tumor growth was measured with calipers twice per week for the duration of the experiment. Mice were sacrificed 40 days after tumor implantation.
Calculation of syngeneic tumor growth and inhibition: In order to determine tumor volume by external caliper, the greatest longitudinal diameter (length in mm) and the greatest transverse diameter (width in mm) were determined. Tumor volumes based on caliper measurements were calculated by the formula: Volume (mm^3)=(length× width^2)/2.

[3] = test system: patients with relapsed or refractory multiple myeloma; assay: Phase 1/2 clinical study of REGN5458 monotherapy; conditions: for Complete response (CR) or stringent CR (sCR) / Overall response rate (ORR) / Partial response (PR) / Very good partial response (VGPR): preliminary results
[4] = test system: established BCMA-expressing NCI-H929 multiple myeloma tumors; assay: Xenogenic tumor model, established NCI-H929 tumors + human PBMC in NSG mice, treatment from day 5 (Example 12); assay type: in vivo, mouse; conditions: for Average Tumor Size (mm3) ± SEM on Day 5: day of first dose
Procedure: To determine the in vivo efficacy of anti-BCMA×anti-CD3 bispecific antibodies (Abs), a xenogenic tumor study was performed. Immunodeficient NOD.Cg-Prkdc^scidII2rg^tm1Wjl/SzJ (NSG) mice were subcutaneously implanted with a mixture of 10×10^6 BCMA-expressing NCI-H929 human multiple myeloma tumor cells and 0.5×10^6 human peripheral blood mononuclear cells (PBMC) isolated from a normal, healthy donor. The tumors were allowed to grow and establish for 5 days until they were approximately 70 mm^3 in size. […] The mice were administered these Abs twice per week for a total of seven doses, and tumor growth was assessed over 55 days.
Implantation and measurement of xenogenic tumors: NSG mice were subcutaneously implanted with a mixture of 10×10^6 BCMA-expressing NCI-H929 multiple myeloma cells and 0.5×10^6 PBMC derived from a normal, healthy donor. The tumors were allowed to grow and establish for 5 days until they were approximately 70 mm^3 in size. […] The mice were administered Abs twice per week for a total of seven doses. Tumor growth was measured with calipers twice per week for the duration of the experiment.
Calculation of xenogenic tumor growth and inhibition: In order to determine tumor volume by external caliper, the greatest longitudinal diameter (length in mm) and the greatest transverse diameter (width in mm) were determined. Tumor volumes based on caliper measurements were calculated by the formula: Volume (mm^3)=(length× width^2)/2.

[5] = Dose Levels 1, 2, 3 (3, 6, 12 mg; n = 24)
[6] = Dose Levels 4, 5 (24, 48 mg; n = 17)
[7] = patients with marrow plasmacytosis <50%

## REGN5458: anti-BCMA×anti-CD3 bispecific antibody: mAb21581 BCMA heavy chain, mAb7221G CD3 heavy chain and common light chain; SEQ ID NOs 126, 127, 129
[1]
  S:N (highest RLU to lowest): 8
[2]
  Average Tumor Size (mm3) ± SEM on Day 4: 39.5 ± 9.1 mm3
  Average Tumor Size (mm3) ± SEM on Day 7: 0 ± 0 mm3
  Average Tumor Size (mm3) ± SEM on Day 11: 0 ± 0 mm3
  Average Tumor Size (mm3) ± SEM on Day 14: 0 ± 0 mm3
  Average Tumor Size (mm3) ± SEM on Day 18: 0 ± 0 mm3
  Average Tumor Size (mm3) ± SEM on Day 21: 0 ± 0 mm3
  Average Tumor Size (mm3) ± SEM on Day 28: 0 ± 0 mm3
  Average Tumor Size (mm3) ± SEM on Day 40: 0 ± 0 mm3
[3]; Dose Level 6 (96 mg; n = 8)
  Complete response (CR) or stringent CR (sCR): 0% (0)
  Overall response rate (ORR): 63% (5)
  Partial response (PR): 0% (0)
  Very good partial response (VGPR): 63% (5)
[3]; [5]
  Complete response (CR) or stringent CR (sCR): 21% (5)
  Overall response rate (ORR): 29% (7)
  Partial response (PR): 4% (1)
  Very good partial response (VGPR): 4% (1)
[3]; [6]
  Complete response (CR) or stringent CR (sCR): 18% (3)
  Overall response rate (ORR): 41% (7)
  Partial response (PR): 0% (0)
  Very good partial response (VGPR): 24% (4)
[3]; dose level 6
  objective response rate (ORR): 62.5%
[3]; dose levels 1 to 3
  objective response rate (ORR): 29.2%
[3]; dose levels 4 and 5
  objective response rate (ORR): 41.2%
[3]; human, in vivo
  observed median duration of response: 6.01 months
[3]; of responders
  complete response (CR) or stringent CR: 42.1%
  responders achieving at least a very good partial response (VGPR): 95%
  responders with DOR ≥8 months: 36.8%
  responders with duration of response (DOR) ≥4 months: 63.2%
[3]; patients with extramedullary plasmacytomas (EMP)
  ORR: 14.3%
[3]; [7]
  ORR: 71.4%
  stringent complete response: 35.7%
  very good partial response: 35.7%
[3]; patients with marrow plasmacytosis ≥50%
  ORR: 9.1%
[3]; patients without EMP
  ORR: 45%
  complete response or stringent complete response: 20%
  very good partial response: 22.5%
[3]; to date
  responders receiving ongoing treatment: 74%
[4]; 0.04 mg/kg
  Average Tumor Size (mm3) ± SEM on Day 8: 130.3 ± 16.7 mm3
  Average Tumor Size (mm3) ± SEM on Day 15: 1031.2 ± 164.3 mm3
  Average Tumor Size (mm3) ± SEM on Day 19: 2467.5 ± 370.0 mm3
  Average Tumor Size (mm3) ± SEM on Day 22: 3745.7 ± 541.2 mm3
  Average Tumor Size (mm3) ± SEM on Day 27: 1589.1 ± 0 mm3
  Average Tumor Size (mm3) ± SEM on Day 30: 2886.5 ± 0 mm3
  Average Tumor Size (mm3) ± SEM on Day 5: 58.1 ± 5.6 mm3
[4]; 0.4 mg/kg
  Average Tumor Size (mm3) ± SEM on Day 8: 120.3 ± 16.3 mm3
  Average Tumor Size (mm3) ± SEM on Day 12: 262.7 ± 61.6 mm3
  Average Tumor Size (mm3) ± SEM on Day 15: 476.2 ± 133.5 mm3
  Average Tumor Size (mm3) ± SEM on Day 19: 1347.5 ± 334.7 mm3
  Average Tumor Size (mm3) ± SEM on Day 22: 2068.5 ± 465.0 mm3
  Average Tumor Size (mm3) ± SEM on Day 27: 3463.9 ± 1025.0 mm3
  Average Tumor Size (mm3) ± SEM on Day 30: 2144.2 ± 2144.2 mm3
  Average Tumor Size (mm3) ± SEM on Day 35: 0 ± 0 mm3
  Average Tumor Size (mm3) ± SEM on Day 40: 0 ± 0 mm3
  Average Tumor Size (mm3) ± SEM on Day 55: 0 ± 0 mm3
  Average Tumor Size (mm3) ± SEM on Day 5: 69.3 ± 7.3 mm3
[4]; 4 mg/kg
  Average Tumor Size (mm3) ± SEM on Day 8: 64.7 ± 16.4 mm3
  Average Tumor Size (mm3) ± SEM on Day 12: 19.5 ± 10.9 mm3
  Average Tumor Size (mm3) ± SEM on Day 15: 25.6 ± 19.2 mm3
  Average Tumor Size (mm3) ± SEM on Day 19: 40.6 ± 32.8 mm3
  Average Tumor Size (mm3) ± SEM on Day 22: 78.3 ± 60.8 mm3
  Average Tumor Size (mm3) ± SEM on Day 30: 411.3 ± 307.2 mm3
  Average Tumor Size (mm3) ± SEM on Day 35: 633.5 ± 473.5 mm3
  Average Tumor Size (mm3) ± SEM on Day 40: 369.5 ± 369.5 mm3
  Average Tumor Size (mm3) ± SEM on Day 55: 0 ± 0 mm3
  Average Tumor Size (mm3) ± SEM on Day 5: 71.9 ± 10.3 mm3
